Measurements reported in article PMC7539967, “The Plasmodium falciparum eIK1 kinase (PfeIK1) is central for melatonin synchronization in the human malaria parasite. Melatotosil blocks melatonin action on parasite cell cycle” (Journal of Pineal Research, 2020).

Assays:
[1] = test system: Plasmodium falciparum 3D7; assay: Effect of indole compounds in parasitemia (48 h), 3D7; format: cell-based; conditions: 3D7, 100 nM melatonin
Description: Red blood cells infected (iRBC) with 3D7 or PfeIK1^‐ (iRBC) with 1% initial parasitemia and 2% hematocrit were incubated with 500 nM of the synthetic indole compounds or 100 nM Melatonin for 48 hours at 37°C under mixture of gases. ^12 The control group received 0.0013% of solvent dimethyl sulfoxide (DMSO).
After 48 hours, iRBC were double‐stained ^34 with nucleic acid marker SYBR Green I (1X) and mitochondria marker, based on membrane potential, MitoTracker Deep Red (50 nM), and incubated for 20 minutes at 37°C.
Final parasitemia was obtained by flow cytometer using an Accuri C6 flow cytometer (Becton Dickinson), collecting 10^4 cells. Parasitemia was determined by dot plots using FlowJo 5 software.

[2] = test system: pfeik1 gene expression in P. falciparum 3D7; assay: Quantitative real-time PCR of pfeik1 expression; format: cell-based, Plasmodium falciparum; conditions: 100 nM melatonin, 4 h
Description: For these experiments, P. falciparum 3D7 culture was synchronized with 5% sorbitol and parasites collected in the three stages: ring (14 hours); trophozoite (30 hours); and schizont (44 hours), at 4% parasitemia. Parasites were treated with 100 nM Melatonin or 0.00005% ethanol (control) and left for 4 hours before RNA extraction with Trizol (Invitrogen). RNA purified with ionic exchange columns with DNAse using RNAse‐free DNAse set (Qiagen) and RNeasy Mini Kit (Qiagen) and quantified in a UV‐Vis NanoDrop 2000c (Thermo Scientific). Three independent experiments were performed in triplicates.
cDNA syntheses were performed using random primers and Superscript II reverse transcriptase (Invitrogen) according to the manufacturer’s protocol. SYBR Green (Applied Biosystems) was used in quantitative real‐time PCR on a 7300 Real‐Time PCR System (Applied Biosystems). Amplification was carried out as follow: on step 50°C for 2 min and 95°C for 10 min for enzyme activation followed by 40 cycles of 95°C for 0.15 min for denaturation and 60°C for 1 min for annealing/extension. The primers used were as follows: PF14_0423‐Fwd […] and PF14_0423‐Rvs […].
Changes in relative expression were determined by 2^‐ΔΔCt or transforming the threshold cycle in absolute number of mRNA. […]

`COc1ccc2[nH]cc(CCNC(C)=O)c2c1` [melatonin, N‐acetyl‐ 5‐methoxytryptamine] was tested, and the increase in parasitemia [1] was “approximately 10%”, the “parasitemia normalized to control, hormone only” value [1] was 110% and the “decrease in pfeik1 expression compared to control” value ([2]; ring stage) was 40%. The “pfeik1 expression vs solvent” value ([2]; trophozoite and schizont stages) was “no significant difference”.
